Measured values: PMC3438169 (PLoS ONE, 2012)
*1 amine or outer side, *2 acyl side, *3 side chain or, on linkers, in order; H or OH if unused. Where a SMILES comes first, the peptide text is derived from it. [ ]: non-standard residue; d: D form. dAla(ψthiazole) = C[C@@H](N[*:1])c1nc(C(=O)[*:2])cs1; Trp(4-OMe) = COc1cccc2[nH]cc(C[C@H](N)C(=O)O)c12; dAbu = CC[C@@H](N)C(=O)O; Dha = C=C(N)C(=O)O; Sar = CNCC(=O)O

Assays:
EF-G1 S459F = molecular target: T1, EF-G1 S459F (Pseudomonas aeruginosa, UniProt Q9HWD2, S459F); experiment: Surface plasmon resonance (SPR), EF-G1 S459F; assay type: binding, P. aeruginosa; details: Biacore, data not shown
T1 construct: P. aeroginosa fusA1 encoding full-length EF-G was PCR amplified from pET28a-PaEFG-Nhis; made in house; host or cells: E. coli BL21 (DE3)
From the text: For wild type P. aeruginosa EF-G1 expression, the fusA gene was amplified from genomic DNA of P. aeruginosa PAO1 K767 using the primer pair EFG-F/EFG-R: […]/[…]. The product was digested with NdeI and HindIII and ligated into similarly digested pET28a to generate pET28a-PaEFG-Nhis. This plasmid was then used for site directed mutagenesis to introduce the nucleotide change encoding EF-G1S459F (pET28a-PaEFGS459F-Nhis). The plasmids were then transformed into an E. coli strain BL21 (DE3) for expression. A single colony was used to inoculate 10 ml LB broth containing 50 µg/ml kanamycin which was incubated at 37°C overnight, with shaking at 250 rpm. The overnight culture was then diluted 100-fold into 1 liter fresh LB broth containing 50 µg/ml kanamycin. After growing at 37°C with vigorous shaking for about 2.5 hours, expression of P. aeruginosa EF-G1 or EF-G1S459F was then induced by adding 0.1 mM IPTG, with further culture incubation at 18°C for 24 hours. Cells were then pelleted by centrifugation at 5,000 rpm with Sorvall SLC-6000 rotor and stored at −20°C. Cell pellets were then resuspended in 20 ml of BugBuster solution (Novagen) and incubated at room temperature for 20 minutes. […] The protein in the fractions was monitored by UV absorbance at 280 nm. […] Protein concentration was determined by Nano-drop spectrophotometer. […]

P. aeruginosa EF-G1 = molecular target: T2, P. aeruginosa EF-G1 (Pseudomonas aeruginosa, UniProt Q9HWD2); experiment: Co-crystal structure of EF-G1 with argyrin B; assay type: binding; details: PDB 4FN5, 2.9 Å
T2 construct: P. aeroginosa fusA1 encoding full-length EF-G was PCR amplified from pET28a-PaEFG-Nhis; made in house; host or cells: E. coli BL21 (DE3)
Procedure: BL21 (DE3) cells harboring pET28a-PaEFG-Nhis were grown in Terrific Broth containing 100 µg/ml kanamycin. EF-G1 expression was induced using 1 mM IPTG. Cell pellets were resuspended and lysed using a microfluidizer, after which ultracentrifugation was performed. Purification was done using NiNTA resin followed by removal of the N-terminal Histidine tag with thrombin protease. The protein was further purified using a Mono Q column and was then concentrated and loaded onto a HiLoad Superdex 200 26/60 column, exchanging the protein into 25 mM Tris-HCl pH 7.5, 150 mM NaCl and 1 mM TCEP. […] Sitting drop vapor diffusion method was used for crystallization, with the crystallization well containing 100 mM Tris-HCl pH 7.5, 18% PEG 3350 and 200 mM sodium nitrate, and the drop containing a 1∶1 volume of protein and crystallization solution. After crystals formed they were subsequently cryoprotected using the crystallization solution with the addition of 20% glycerol, followed by flash freezing directly into liquid nitrogen.
The data were measured from a single crystal maintained at 100°K, and the reflections were indexed, integrated, and scaled using autoPROC [27], [28]. The spacegroup of the complex is C2 with 1 molecule in the asymmetric unit. The structure was determined with PHASER [29] using molecular replacement methods with a starting model of Thermus thermophilus EF-G (PDB Code 2BM0). […]

T2 sequence (Q9HWD2 whole entry): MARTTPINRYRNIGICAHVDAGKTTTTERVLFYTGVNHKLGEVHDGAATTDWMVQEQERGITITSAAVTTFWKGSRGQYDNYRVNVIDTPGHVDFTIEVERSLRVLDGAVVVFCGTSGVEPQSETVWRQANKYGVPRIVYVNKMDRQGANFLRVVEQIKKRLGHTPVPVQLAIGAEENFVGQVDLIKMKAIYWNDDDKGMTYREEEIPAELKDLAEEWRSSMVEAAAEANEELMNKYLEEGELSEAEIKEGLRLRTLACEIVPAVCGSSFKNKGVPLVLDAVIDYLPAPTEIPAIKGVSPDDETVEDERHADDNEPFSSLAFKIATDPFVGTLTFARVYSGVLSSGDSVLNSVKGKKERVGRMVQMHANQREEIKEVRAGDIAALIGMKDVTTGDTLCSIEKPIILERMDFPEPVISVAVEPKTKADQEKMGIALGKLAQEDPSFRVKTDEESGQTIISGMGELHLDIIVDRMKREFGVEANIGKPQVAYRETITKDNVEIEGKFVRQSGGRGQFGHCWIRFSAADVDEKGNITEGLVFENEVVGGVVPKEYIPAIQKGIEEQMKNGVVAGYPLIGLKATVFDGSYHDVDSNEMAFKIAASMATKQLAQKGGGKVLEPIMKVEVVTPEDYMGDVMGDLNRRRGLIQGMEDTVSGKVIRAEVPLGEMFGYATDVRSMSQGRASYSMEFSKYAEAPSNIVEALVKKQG
T1 sequence (Q9HWD2 whole entry S459F): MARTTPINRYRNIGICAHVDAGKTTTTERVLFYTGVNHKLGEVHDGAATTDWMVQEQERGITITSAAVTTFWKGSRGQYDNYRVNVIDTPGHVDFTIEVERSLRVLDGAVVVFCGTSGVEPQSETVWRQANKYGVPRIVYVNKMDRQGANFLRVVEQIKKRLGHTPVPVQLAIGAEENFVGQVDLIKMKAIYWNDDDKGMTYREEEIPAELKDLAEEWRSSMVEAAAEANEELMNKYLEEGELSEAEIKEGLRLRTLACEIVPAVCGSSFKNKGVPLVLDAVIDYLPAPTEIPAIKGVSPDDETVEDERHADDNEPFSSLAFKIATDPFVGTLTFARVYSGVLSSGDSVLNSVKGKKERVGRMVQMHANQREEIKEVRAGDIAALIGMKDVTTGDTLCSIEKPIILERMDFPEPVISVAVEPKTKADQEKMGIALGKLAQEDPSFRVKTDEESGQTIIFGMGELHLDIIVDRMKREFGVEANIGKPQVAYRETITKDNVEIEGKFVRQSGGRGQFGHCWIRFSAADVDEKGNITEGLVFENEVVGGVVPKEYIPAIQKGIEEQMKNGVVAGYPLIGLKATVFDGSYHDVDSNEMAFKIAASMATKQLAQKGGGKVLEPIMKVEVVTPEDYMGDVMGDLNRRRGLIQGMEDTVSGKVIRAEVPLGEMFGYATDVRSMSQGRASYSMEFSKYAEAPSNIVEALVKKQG

SMILES: C=C1NC(=O)CN(C)C(=O)CNC(=O)[C@H](Cc2c[nH]c3cccc(OC)c23)NC(=O)[C@H](Cc2c[nH]c3ccccc23)NC(=O)c2csc(n2)[C@@H](C)NC(=O)[C@@H](CC)NC1=O [argyrin B] (cyclo([dAbu][dAla(ψthiazole)]W[Trp(4-OMe)]G[Sar][Dha]))
- Binding by SPR (in words) (EF-G1 S459F): failed to bind argyrin B sufficiently to generate a Kd value
- Binding site in co-crystal structure (P. aeruginosa EF-G1): bound at the interface of domains III and V
